Laboratory results from patent US20240270821A1, “GIP/GLP1/GCG TRI-RECEPTOR AGONISTS AND USES THEREOF” (priority 2023, published 2024).
Where two headings read alike, the source gives them in different places. Starred links: 1 amine or outer side, 2 acyl side, 3 side chain; linkers in the order of their positions; H or OH if unused. Non-standard residues stand in square brackets, D forms with d. Groups on a side chain read outwards from the residue. *: point of attachment. C18 diacid = O=C(O)CCCCCCCCCCCCCCCCC(=O)*; αMePhe(2-F) = C[C@](N)(Cc1ccccc1F)C(=O)O; γGlu = O=C(O)[C@H](CCC(=O)[*:2])N[*:1]; αMe4Pal = C[C@](N)(Cc1ccncc1)C(=O)O; αMeY = C[C@](N)(Cc1ccc(O)cc1)C(=O)O; 4Pal = N[C@@H](Cc1ccncc1)C(=O)O; αMeL = CC(C)C[C@](C)(N)C(=O)O; αMeS = C[C@](N)(CO)C(=O)O; Orn = NCCC[C@H](N)C(=O)O; AEEA = NCCOCCOCC(=O)O; Aib = CC(C)(N)C(=O)O

Columns and labels:
Format in all cases: cell-based
hGIPR [1] = biological target: T1, hGIPR (Homo sapiens, UniProt P48546); assay: Functional cAMP activity in the presence of 1% HSA; conditions: read-out: cAMP Rel EC50, hGIPR
T1 sequence (P48546 22-466): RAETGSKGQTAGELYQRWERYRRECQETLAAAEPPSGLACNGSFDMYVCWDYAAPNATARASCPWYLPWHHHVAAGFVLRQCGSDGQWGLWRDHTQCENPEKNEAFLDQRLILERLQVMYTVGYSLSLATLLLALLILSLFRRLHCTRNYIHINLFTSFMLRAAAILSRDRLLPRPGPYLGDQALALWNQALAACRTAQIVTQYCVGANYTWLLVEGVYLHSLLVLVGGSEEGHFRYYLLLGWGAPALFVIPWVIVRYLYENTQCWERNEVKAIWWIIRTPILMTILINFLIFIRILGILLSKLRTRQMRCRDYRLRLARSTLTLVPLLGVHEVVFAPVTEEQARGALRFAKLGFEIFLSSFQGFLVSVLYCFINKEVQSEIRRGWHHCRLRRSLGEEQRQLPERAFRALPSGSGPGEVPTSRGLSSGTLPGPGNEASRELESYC

hGIPR [2] = biological target: T1, hGIPR; assay: Functional cAMP activation in the presence of 0.1% casein (no HSA); conditions: read-out: Relative cAMP EC50, hGIPR;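 as to Relative cAMP EC50, hGIPR: intracellular cAMP rise after 30 min at 37 °C read by HTRF against a standard curve, scaled between buffer alone (0%) and top control ligand concentration (100%), four-parameter fit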;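 as to Relative cAMP EC50, hGLP-1R: intracellular cAMP rise after 30 min at 37 °C read by HTRF, normalized between buffer only (0%) and maximal control ligand (100%), four-parameter variable-slope fit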
hGLP-1R [3] = biological target: T2, hGLP-1R (Homo sapiens, UniProt P43220); assay: Functional cAMP activity in the presence of 1% HSA; conditions: read-out: cAMP Rel EC50, hGLP-1R
T2 sequence (P43220 24-463): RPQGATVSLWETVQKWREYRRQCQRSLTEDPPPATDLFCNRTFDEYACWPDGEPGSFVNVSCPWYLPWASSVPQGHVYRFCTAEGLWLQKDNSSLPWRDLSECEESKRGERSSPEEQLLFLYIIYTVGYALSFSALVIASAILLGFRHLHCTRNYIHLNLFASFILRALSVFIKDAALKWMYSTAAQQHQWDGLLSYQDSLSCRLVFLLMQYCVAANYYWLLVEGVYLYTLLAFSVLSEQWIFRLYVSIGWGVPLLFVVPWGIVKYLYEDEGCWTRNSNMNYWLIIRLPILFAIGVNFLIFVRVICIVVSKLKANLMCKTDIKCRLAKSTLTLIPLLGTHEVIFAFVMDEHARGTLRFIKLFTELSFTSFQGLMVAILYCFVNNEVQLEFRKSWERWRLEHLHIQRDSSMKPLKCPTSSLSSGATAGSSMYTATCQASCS

hGLP-1R [4] = biological target: T2, hGLP-1R; assay: Functional cAMP activation in the presence of 0.1% casein (no HSA); conditions: read-out: Relative cAMP EC50, hGLP-1R;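 as to Relative cAMP EC50, hGIPR: intracellular cAMP rise after 30 min at 37 °C read by HTRF against a standard curve, scaled between buffer alone (0%) and top control ligand concentration (100%), four-parameter fit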;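 as to Relative cAMP EC50, hGLP-1R: intracellular cAMP rise after 30 min at 37 °C read by HTRF, normalized between buffer only (0%) and maximal control ligand (100%), four-parameter variable-slope fit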
human GcgR = human GcgR (Homo sapiens, UniProt P47871); assay: Functional cAMP activity in the presence of 1% HSA; conditions: read-out: cAMP Rel EC50, hGcgR
human GcgR, sequence (P47871 26-477): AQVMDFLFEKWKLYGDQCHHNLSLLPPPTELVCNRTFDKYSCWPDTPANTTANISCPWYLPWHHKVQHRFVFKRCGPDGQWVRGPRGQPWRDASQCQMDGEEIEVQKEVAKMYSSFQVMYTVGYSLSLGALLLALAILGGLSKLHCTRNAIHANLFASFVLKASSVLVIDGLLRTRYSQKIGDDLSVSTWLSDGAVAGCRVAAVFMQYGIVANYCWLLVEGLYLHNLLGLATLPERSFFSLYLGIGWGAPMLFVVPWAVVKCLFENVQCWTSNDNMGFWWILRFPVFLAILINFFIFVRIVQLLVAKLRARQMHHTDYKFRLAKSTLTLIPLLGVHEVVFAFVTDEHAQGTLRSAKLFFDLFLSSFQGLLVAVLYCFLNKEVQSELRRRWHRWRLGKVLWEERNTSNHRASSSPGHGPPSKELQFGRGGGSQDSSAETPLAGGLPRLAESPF

hGcgR = hGcgR (Homo sapiens, UniProt P47871); assay: Functional cAMP activation in the presence of 0.1% casein (no HSA); conditions: read-out: Relative cAMP EC50, hGcgR;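 also: intracellular cAMP rise after 30 min at 37 °C, read by HTRF against a cAMP standard curve, scaled from buffer only (0%) to maximal control ligand response (100%)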
hGcgR, sequence (P47871 26-477): as above

[5] = in the presence of 0.1% casein (no HSA), geometric mean
[6] = 0.1% casein, no HSA, geometric mean

| Substance | EC50 (hGIPR [1]) | EC50 (hGIPR [2]; [5]) | EC50 (hGLP-1R [3]) | EC50 (hGLP-1R [4]; [5]) | EC50 (human GcgR) | EC50 (hGcgR; [5]) | EC50 (hGIPR [2]) | EC50 (hGLP-1R [4]) | EC50 (hGcgR) | EC50 (hGIPR [2]; [6]) | EC50 (hGLP-1R [4]; [6]) | EC50 (hGcgR; [6]) |
| --- | --- | --- | --- | --- | --- | --- | --- | --- | --- | --- | --- | --- |
| H-Y[Aib]QGT[αMePhe(2-F)]TSD[4Pal][αMeS]I[αMeL]LD[Orn]K([AEEA-γGlu-C18 diacid])AQ[αMe4Pal]EFI[dE][αMeY]LIEGGPSSGAPPPSGE-NH2 [Example 1140] | 0.869 nM | 0.00821 nM | 39.2 nM | 0.323 nM | 228 nM | 1.56 nM |  |  |  |  |  |  |
| H-Y[Aib]QGT[αMePhe(2-F)]TSD[4Pal][αMeS]I[αMeL]LD[Orn]K([AEEA-γGlu-C18 diacid])AQ[αMe4Pal]EFI[dE][αMeY]LIEGGPSSGAPPPSGGGEE-NH2 [Example 1214] | 0.771 nM |  | 50 nM |  | 210 nM |  |  |  |  | 0.00851 nM | 0.55 nM | 1.85 nM |
| H-Y[Aib]QGT[αMePhe(2-F)]TSD[4Pal][αMeS]I[αMeL]LD[Orn]K([AEEA-γGlu-C18 diacid])AQ[αMe4Pal]EFI[dE][αMeY]LIEGGPSSGAPPPSGGGEEE-NH2 [Example 1215] | 0.937 nM |  | 58.5 nM |  | 272 nM |  |  |  |  | 0.0106 nM | 0.668 nM | 2.09 nM |
| H-Y[Aib]QGT[αMePhe(2-F)]TSD[4Pal][αMeS]I[αMeL]LD[Orn]K([AEEA-γGlu-C18 diacid])AQ[αMe4Pal]EFI[dE][αMeY]LIEGGPSSGAPPPSGSEE-NH2 [Example 713] | 0.879 nM |  | 37.7 nM |  | 180 nM |  | 0.00928 nM | 0.331 nM | 1.71 nM |  |  |  |
| H-Y[Aib]QGT[αMePhe(2-F)]TSD[4Pal][αMeS]I[αMeL]LD[Orn]K([AEEA-γGlu-C18 diacid])AQ[αMe4Pal]EFI[dE][αMeY]LIEGGPSSGAPPPTGE-NH2 [Example 1142] | 0.748 nM | 0.00706 nM | 38 nM | 0.329 nM | 203 nM | 1.34 nM |  |  |  |  |  |  |
| H-Y[Aib]QGT[αMePhe(2-F)]TSD[4Pal][αMeS]I[αMeL]LD[Orn]K([AEEA-γGlu-C18 diacid])AQ[αMe4Pal]EFI[dE][αMeY]LIEGGPSSGEPPPEGE-NH2 [Example 1149] | 0.96 nM | 0.00804 nM | 52.2 nM | 0.352 nM | 184 nM | 1.37 nM |  |  |  |  |  |  |
| H-Y[Aib]QGT[αMePhe(2-F)]TSD[4Pal][αMeS]I[αMeL]LD[Orn]K([AEEA-γGlu-C18 diacid])AQ[αMe4Pal]EFI[dE][αMeY]LIEGGPSSGEPPPEGGGE-NH2 [Example 760] | 1.29 nM |  | 43.6 nM |  | 239 nM |  | 0.00722 nM | 0.395 nM | 1.59 nM |  |  |  |
| H-Y[Aib]QGT[αMePhe(2-F)]TSD[4Pal][αMeS]I[αMeL]LD[Orn]K([AEEA-γGlu-C18 diacid])AQ[αMe4Pal]EFI[dE][αMeY]LIEGGPSSGEPPPGGE-NH2 [Example 1145] | 0.848 nM | 0.00689 nM | 39.1 nM | 0.313 nM | 148 nM | 1.07 nM |  |  |  |  |  |  |
| H-Y[Aib]QGT[αMePhe(2-F)]TSD[4Pal][αMeS]I[αMeL]LD[Orn]K([AEEA-γGlu-C18 diacid])AQ[αMe4Pal]EFI[dE][αMeY]LIEGGPSSGEPPPTGE-NH2 [Example 1143] | 0.751 nM | 0.0087 nM | 49.6 nM | 0.381 nM | 182 nM | 1.42 nM |  |  |  |  |  |  |
| H-Y[Aib]QGT[αMePhe(2-F)]TSD[4Pal][αMeS]I[αMeL]LD[Orn]K([AEEA-γGlu-C18 diacid])AQ[αMe4Pal]EFI[dE][αMeY]LVEGGPSSGAPPPEGE-NH2 [Example 1158] | 1.42 nM | 0.0126 nM | 46.8 nM | 0.419 nM | 301 nM | 2.19 nM |  |  |  |  |  |  |
| H-Y[Aib]QGT[αMePhe(2-F)]TSD[4Pal][αMeS]I[αMeL]LD[Orn]K([AEEA-γGlu-C18 diacid])AQ[αMe4Pal]EFI[dE][αMeY]LVEGGPSSGAPPPESE-NH2 [Example 1156] | 1.33 nM | 0.0127 nM | 47.1 nM | 0.444 nM | 337 nM | 2.94 nM |  |  |  |  |  |  |
| H-Y[Aib]QGT[αMePhe(2-F)]TSD[4Pal][αMeS]I[αMeL]LD[Orn]K([AEEA-γGlu-C18 diacid])AQ[αMe4Pal]EFI[dE][αMeY]LVEGGPSSGAPPPGGE-NH2 [Example 1154] | 0.954 nM | 0.00879 nM | 44.5 nM | 0.344 nM | 320 nM | 6.42 nM |  |  |  |  |  |  |
| H-Y[Aib]QGT[αMePhe(2-F)]TSD[4Pal][αMeS]I[αMeL]LD[Orn]K([AEEA-γGlu-C18 diacid])AQ[αMe4Pal]EFI[dE][αMeY]LVEGGPSSGAPPPSGE-NH2 [Example 749] | 1.47 nM |  | 33.9 nM |  | 28 nM |  | 0.00718 nM | 0.293 nM | 2.21 nM |  |  |  |
| H-Y[Aib]QGT[αMePhe(2-F)]TSD[4Pal][αMeS]I[αMeL]LD[Orn]K([AEEA-γGlu-C18 diacid])AQ[αMe4Pal]EFI[dE][αMeY]LVEGGPSSGAPPPSGSE-NH2 [Example 751] | 1.27 nM |  | 32.3 nM |  | 267 nM |  | 0.00759 nM | 0.302 nM | 1.9 nM |  |  |  |
| H-Y[Aib]QGT[αMePhe(2-F)]TSD[4Pal][αMeS]I[αMeL]LD[Orn]K([AEEA-γGlu-C18 diacid])AQ[αMe4Pal]EFI[dE][αMeY]LVEGGPSSGAPPPTGE-NH2 [Example 1152] | 1.21 nM | 0.0101 nM | 43.8 nM | 0.371 nM | 287 nM | 2.32 nM |  |  |  |  |  |  |

More lines, main results first:

| EC50 (hGIPR [1]) | EC50 (hGIPR [2]; [5]) | EC50 (hGLP-1R [3]) | EC50 (hGLP-1R [4]; [5]) | EC50 (human GcgR) | EC50 (hGcgR; [5]) | EC50 (hGIPR [2]) | EC50 (hGLP-1R [4]) | EC50 (hGcgR) | Substance | EC50 (hGIPR [2]; [6]) | EC50 (hGLP-1R [4]; [6]) | EC50 (hGcgR; [6]) |
| --- | --- | --- | --- | --- | --- | --- | --- | --- | --- | --- | --- | --- |
| 1.29 nM | 0.0118 nM | 64.1 nM | 0.45 nM | 238 nM | 1.86 nM |  |  |  | H-Y[Aib]QGT[αMePhe(2-F)]TSD[4Pal][αMeS]I[αMeL]LD[Orn]K([AEEA-γGlu-C18 diacid])AQ[αMe4Pal]EFI[dE][αMeY]LVEGGPSSGEPPPEGE-NH2 [Example 1159] |  |  |  |
| 1.28 nM | 0.0124 nM | 57.5 nM | 0.408 nM | 384 nM | 2.04 nM |  |  |  | H-Y[Aib]QGT[αMePhe(2-F)]TSD[4Pal][αMeS]I[αMeL]LD[Orn]K([AEEA-γGlu-C18 diacid])AQ[αMe4Pal]EFI[dE][αMeY]LVEGGPSSGEPPPESE-NH2 [Example 1157] |  |  |  |
| 0.888 nM | 0.00917 nM | 44.4 nM | 0.434 nM | 288 nM | 1.83 nM |  |  |  | H-Y[Aib]QGT[αMePhe(2-F)]TSD[4Pal][αMeS]I[αMeL]LD[Orn]K([AEEA-γGlu-C18 diacid])AQ[αMe4Pal]EFI[dE][αMeY]LVEGGPSSGEPPPGGE-NH2 [Example 1155] |  |  |  |
| 1.34 nM |  | 39.1 nM |  | 205 nM |  | 0.00784 nM | 0.302 nM | 2 nM | H-Y[Aib]QGT[αMePhe(2-F)]TSD[4Pal][αMeS]I[αMeL]LD[Orn]K([AEEA-γGlu-C18 diacid])AQ[αMe4Pal]EFI[dE][αMeY]LVEGGPSSGEPPPSGE-NH2 [Example 750] |  |  |  |
| 1.74 nM |  | 44 nM |  | 228 nM |  | 0.00689 nM | 0.274 nM | 1.9 nM | H-Y[Aib]QGT[αMePhe(2-F)]TSD[4Pal][αMeS]I[αMeL]LD[Orn]K([AEEA-γGlu-C18 diacid])AQ[αMe4Pal]EFI[dE][αMeY]LVEGGPSSGEPPPSGSE-NH2 [Example 752] |  |  |  |
| 1.23 nM |  | 46.3 nM |  | 245 nM |  | 0.014 nM | 0.489 nM | 2.85 nM | H-Y[Aib]QGT[αMePhe(2-F)]TSD[4Pal][αMeS]I[αMeL]LD[Orn]K([AEEA-γGlu-C18 diacid])AQ[αMe4Pal]EFI[dE][αMeY]LVEGGPSSGEPPPSGSEE-NH2 [Example 736] |  |  |  |
| 1.3 nM |  | 38.1 nM |  | 230 nM |  | 0.0132 nM | 0.417 nM | 2.08 nM | H-Y[Aib]QGT[αMePhe(2-F)]TSD[4Pal][αMeS]I[αMeL]LD[Orn]K([AEEA-γGlu-C18 diacid])AQ[αMe4Pal]EFI[dE][αMeY]LVEGGPSSGEPPPSGTGE-NH2 [Example 734] |  |  |  |
| 1.39 nM | 0.0109 nM | 52.7 nM | 0.33 nM | 215 nM | 2.69 nM |  |  |  | H-Y[Aib]QGT[αMePhe(2-F)]TSD[4Pal][αMeS]I[αMeL]LD[Orn]K([AEEA-γGlu-C18 diacid])AQ[αMe4Pal]EFI[dE][αMeY]LVEGGPSSGEPPPTGE-NH2 [Example 1153] |  |  |  |
